Here are results for 2 sequences from article PMC11288129, “Diversely evolved xibalbin variants from remipede venom inhibit potassium channels and activate PKA-II and Erk1/2 signaling” (BMC Biology, 2024).

Entries after “also recorded” stand apart in the source; their conditions may differ. Positions of bridges follow the written chain, without caps; N, C: chain ends. No end group written: not given here.

This assay concerns Erk1/2 (T202/Y204) in rat DRG neurons. Nature of the assay: High-content imaging of pERK1/2 in DRG sensory neurons. In kind it is cell-based. The following applies: for pErk1/2 activation: 5 and 30 min, 0.005 to 0.8 µg/µL; for pErk1/2 response by neuron size: xibalbins 0.8 µg/µL. The protocol:
To gauge sensory neuron activity in response to various activating stimuli, including electrical activity, phosphorylation state detection of protein kinase A type II (PKA-II) and MAP kinase Erk1/2 can act as surrogate measurements. Consequently, we tested for increased phosphorylation states in a concentration-dependent manner following exposure to xibalbins. Dissociated DRG neurons were cultured overnight and then exposed to increasing concentrations of the corresponding xibalbins for 5 min and 30 min, respectively. As a positive control, forskolin (Fsk) was also used to induce cAMP synthesis. The activity of PKA-II was monitored by antibodies directed against the phosphorylation site of the inhibitory regulatory subunits RIIα/β, which is exclusively accessible when the catalytic kinase domain is released during kinase activation. For measuring Erk1/2 activity, phospho-sites on Erk1/2 (T202/Y204) were monitored through immunofluorescence, as these sites are phosphorylated during activation. Cellular images were captured using HCI microscopy (Fig. 8A), and the average intensity of each phospho-antibody was quantified (Fig. 8B).
Fig. 8 A Representative images of rat DRG neurons stimulated with PBS (Ctrl) and xib1b (0.8 µg/µL). Cells were stained for UCHL1, pRII, pERK1/2, and Hoechst followed by fixation and staining with standard immunocytochemistry protocols. Green-encircled neurons indicate automatically selected objects. Scale bar: 100 µm. B Mean intensities of UCHL1, pRII, and pERK1/2. The same UCHL1 intensities were observed among tested groups. Forskolin (Fsk), an activator of adenylyl cyclase, was used as a positive control. Fsk at 6 µM concentration induced an increase in pRII and pERK1/2 intensities at 5 and 30 min. Number of analyzed cells per replica: 750 ± 200. Eight independent replicas. C–F Concentration responses of xibalbin toxins (0.005 to 0.8 µg/µL) and mean intensities of pRII and pERK1/2 at 5 min and 30 min. G–H Size versus pRII and pErk1/2 intensities of cells treated with 0.8 µg/µL of xib1 and xib13. Small-sized cells were responding to xibalbins. Statistical significance was assessed using one-way ANOVA with Dunnett’s post hoc test. Data represent mean ± S.E.M (standard error of the mean), n = 4, see “Methods” for details and Additional File 6: Table S2 for individual data values
Male Sprague Dawley rats (250–400 g, 8–16 weeks old) were obtained from Envigo. Rats were kept in 12 h of light/darkness cycles. All experiments were performed in accordance with the German animal welfare law with permission of the District Government for Nature and Environment, NRW (84–02.05.20.13.045, 4.18.003). Rats were scarified by slow inhalation of CO2 which was followed by decapitation. DRGs were extracted from rats, deheated, pooled, and incubated in Neurobasal A/B27 medium (Invitrogen, #12349–015) supplemented with B-27 (Invitrogen #17504), L-glutamine 1:400, L-glutamate 1:270.3, and penicillin/streptomycin 1:100 containing 0.2 U/mL collagenase P (collagenase P, Roche, #1213857) and incubated for 1 h at 37 °C, 5% CO2. DRGs were dissociated with pasteur pipettes and axon stumps were separated by BSA (Sigma-Aldrich, # A2153-100G) gradient centrifugation (14% BSA, 120 g, 8 min). Cells were resuspended in NBA medium, plated in 96-well imaging plate (Greiner BioOne Sensoplate, Black, #655896) precoated with poly-L-ornithine hydrochloride (0.1 mg/ml Sigma, #P2533)/laminin (5 µg/ml Invitrogen, #23017–015), and incubated overnight at 37 °C, 5% CO2.
DRGs were stimulated after overnight incubation. Compounds were prepared as tenfold concentrated stock solutions, diluted in PBS (PAA, cat# H15-002), in v-bottom plates; 50 µL media from culture wells were mixed with the […] stock solutions, and 50 µL added back to the respective wells. Stimulation was performed with automated multichannel pipette and cells were kept in heated block during the stimulation. […]

[1] abbreviates: 30 min, 0.8 µg/µL (xib13 148 µM, q = 4.32; xib1 154 µM, q = 4.07).

With “KRSCIRRFGRCDHRPNDCCYNSSCRCNLWGSNCRCQRMGLFQKWGK (disulfide 4-19, 11-24, 18-35, 26-33) [xib13]”, the “pErk1/2 activation” value was “increase PKA-II and Erk1/2 sensitization signaling; also recorded: increased PKA-II and pErk1/2 activity”; the “pErk1/2 response by neuron size” value was “increased phosphorylation signals in both small-sized and large-sized sensory neurons”. In addition, the “increase in pErk1/2 signal” value (5 min, 0.8 µg/µL (148 µM), q = 4.54) is listed as “up to 2.5 fold”. The “increase in pErk1/2 signal” value under setting [1] is on record as no more than 2.3 fold.

On to “RLFCIRHHKYCGHRPKRCCSGLFCRCNTFGTNCRCQSKGALGKLI (disulfide 4-19, 11-24, 18-35, 26-33) [xib1]”, for which the “pErk1/2 activation” value was “increase PKA-II and Erk1/2 sensitization signaling; also recorded: increased PKA-II and pErk1/2 activity”; the “pErk1/2 response by neuron size” value is “increased phosphorylation signals in both small-sized and large-sized sensory neurons”. In addition, the “increase in pErk1/2 signal” value under setting [1] was determined as 2.17 fold.
